In patent publication US20080146555A1, “Uses of Kinase Inhibitors and Compositions Thereof” (GPC Biotech, Inc, priority 2004, published 2008):
pIC50: −log10 of the molar value. In brackets after ≈: the same amount, converted by molar mass. Where a name gives a salt, the structure may show the parent alone. Read-outs that look alike come from different tables or passages of the source.

Tests used:
HT29 = experiment: SRB cytotoxicity, HT29 parental cells; format: cell-based; conditions: Homo sapiens, HT-29, 72 h
Protocol: In these experiments, the P-glycoprotein expressing NCI-Adr resistant subline (Vickers et al., 1989. Mol Endocrinology 3 (1):157-164) was used. […] Briefly, cells were plated in 96 well dishes 24 hours prior to compound addition. Where noted, they were exposed to verapamil for 4 hours prior to compound addition and then throughout the treatment period (72 hours). The assay was terminated with the addition of cold TCA to a final concentration of 10% and the plates were incubated for one hour at 4° C. The plates were then washed 5 times with water and 100 μl of a Sulforhodamine B solution (4%) was added to each well. The plate was then incubated for 10 minutes at room temperature before removal of unbound dye by washing with 1% acetic acid.
The parental non-mutated cell line HT29 was used as a control.
Z. Cytotoxicity was measured using the SRB assay according to Shekan et al. as described above in Example 1A.

[1] = Maximum tolerated dose in mice; conditions: mouse, in vivo, intravenous
Protocol: Determination of maximum tolerated dose (MTD). Mice at 8 weeks of age were pair-matched into groups of 5-8 animals and preliminary toxicity studies were performed with unknown test compounds. Animals were treated i.v. daily for 10 consecutive days with test compound and were weighed twice weekly. Mice were examined frequently for clinical signs of any adverse drug-related effects. Acceptable toxicity for anti-cancer drugs in mice is defined by the NCl as no mean group weight loss of over 20% and not more than 10% toxic death in treated animals.

CK1 delta = molecular target: T1, CK1 delta (Homo sapiens, UniProt P48730); experiment: CK1-Delta kinase assay (B16 assay); format: biochemical
T1 construct: purchased Upstate 14-520
T1 sequence (P48730 whole entry): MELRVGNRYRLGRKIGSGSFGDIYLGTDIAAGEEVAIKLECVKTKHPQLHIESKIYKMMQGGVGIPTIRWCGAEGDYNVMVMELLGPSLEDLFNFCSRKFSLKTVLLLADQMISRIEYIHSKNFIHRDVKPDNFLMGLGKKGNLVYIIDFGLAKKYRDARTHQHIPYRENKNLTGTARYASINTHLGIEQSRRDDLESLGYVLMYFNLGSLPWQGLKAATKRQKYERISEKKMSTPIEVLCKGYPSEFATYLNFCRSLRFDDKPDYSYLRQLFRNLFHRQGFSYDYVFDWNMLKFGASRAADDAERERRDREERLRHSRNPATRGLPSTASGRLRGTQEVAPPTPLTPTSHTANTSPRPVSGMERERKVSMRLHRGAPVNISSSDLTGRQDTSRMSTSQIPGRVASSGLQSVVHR

quiescent tumor cells = experiment: Activity on quiescent tumor cells; format: cell-based
Aqueous solubility = format: physicochemical; conditions: water (aqueous solution)
Solution stability = format: physicochemical; conditions: pH6, room temperature, kept in dark
PC3 xenograft = PC3 xenograft tumor model; design: species or system mice; conditions: mouse, in vivo
Protocol: Drugs. Compounds of the invention were synthesized and prepared for i.v. administration in a biocompatible vehicle. CPT-11 (Camptosar®, Pharmacia) was obtained as the pharmaceutical drug and was prepared in 5% dextrose-water (D5W). All preparations were made fresh weekly and injection volumes were adjusted to body weight (0.2 ml/20 g mouse).
Mice/Husbandry. Female nu/nu mice were obtained from Charles River, housed in static microisolators, and provided ad libitum with water and an irradiated standard rodent diet (Purina Pico-Lab Rodent Diet 20).
Standard Protocol. […] Animals were initially monitored twice weekly for tumor growth and then daily as the implants approached the desired size of approximately 100 mm^3. When the tumors grew to between 62-221 mg in calculated tumor weight, the animals were pair-matched into appropriate experimental treatment groups (8-10 animals/group) and treatment with test compounds was initiated. […] Tumor weights were calculated and body weights were taken twice weekly and animals were observed frequently for adverse drug effects. […]
Tumors were measured by determining the length and width of the tumor with a digital caliper. […]
Log cell kill (LCK) is a calculation that determines the percentage of tumor cells that are killed after the initiation of treatment and can be used as a quantitative measure of efficacy: […]

SMILES: COCCN1CCN(Cc2ccc(-c3n[nH]c4c3C(=O)c3c(NC(=O)NN5CCOCC5)cccc3-4)cc2)CC1 [Compound B16, N-[3-(4-{[4-(2-methoxyethyl)piperazinyl]methyl}phenyl)-4-oxoindeno[2,3-d]pyrazol-5-yl](morpholin-4-ylamino)carboxamide dihydrochloride]
- pIC50 (HT29): 7.11
- MTD ([1]; CD-1 mice, read-out: MTD, 5/2/5 dose): 40 mg/kg
- MTD at 5 days ([1]; nu/nu mice): ~100 mg/kg
- MTD ([1]; nu/nu mice, read-out: MTD, single dose): ~120 mg/kg
- pIC50 (CK1 delta; CK1 delta, read-out: CSNK1A1 (CK1) Inhibition (IC50), B16): > 7.30
- pIC50 (CK1 delta; kinase panel, read-out: CK1 IC50 (B16)): > 7.00
- pIC50 (quiescent tumor cells): 7.96

SMILES: CC(C)N1CCN(C(=O)COc2ccc(-c3n[nH]c4c3C(=O)c3c(NC(=O)NN5CCOCC5)cccc3-4)cc2)CC1 [Compound A37]
- solubility (Aqueous solubility): 15 to 20 mg/mL (≈ 26.1 to 34.9 mM)
- Solution stability (Solution stability): > 1 mo.
- efficacy in PC3 xenograft tumor model (PC3 xenograft): high efficacy
